Results on two molecules are retold here after article PMC8944544, “IPA-3: An Inhibitor of Diadenylate Cyclase of Streptococcus suis with Potent Antimicrobial Activity” (Antibiotics, 2022).

In assay [1] the target is T1, diadenylate cyclase of Streptococcus suis (ssDacA) (Streptococcus suis, UniProt A0A0H3N0L3).
T1 construct: gene dacA; C-terminal catalytic domain (residues 99 to 283), His-tagged, from S. suis SC19
Description: Kinase-Glo ATP consumption assay with purified enzyme ([…] ssDacA); confirmed by HPLC of c-di-AMP. The format is biochemical. A general note: In Kinase-Glo more light means more ATP remaining.

The target of assay [2] is T1, diadenylate cyclase of Streptococcus suis (ssDacA). Description: HPLC quantification of product formed by purified enzyme. The format is biochemical.

Structures are written as SMILES.

T1 sequence (A0A0H3N0L3 entry or part of it): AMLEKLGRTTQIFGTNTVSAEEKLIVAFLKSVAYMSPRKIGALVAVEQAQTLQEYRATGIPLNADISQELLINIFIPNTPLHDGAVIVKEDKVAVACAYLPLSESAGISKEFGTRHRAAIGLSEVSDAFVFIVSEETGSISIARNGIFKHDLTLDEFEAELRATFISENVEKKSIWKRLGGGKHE

In general, IC50 refers to the concentration that inhibits the measured activity by half. Low values mean greater potency, high ones weaker potency. The molecule `Oc1ccc2ccccc2c1SSc1c(O)ccc2ccccc12` [IPA-3, 2,2′-dihydroxy-1,1′-dinapthyldisulfide] showed a 50% inhibitory concentration (IC50) in assay [1] of 38.2 µM. As for `Nc1ncnc2c1ncn2[C@@H]1O[C@@H]2COP(=O)(O)O[C@H]3[C@@H](O)[C@H](n4cnc5c(N)ncnc54)O[C@@H]3COP(=O)(O)O[C@H]2[C@H]1O` [c-di-AMP], the “HPLC quantification of product formed by purified enzyme” value in assay [2] is “the catalytic product c-di-AMP in the reaction was detected in the presence and absence of IPA-3 in vitro”.
